Assay results published in ChEMBL document CHEMBL3044754, “Physcion, a natural anthraquinone derivative, enhances the gene expression of leaf-specific thionin of barley against Blumeria graminis” (2010).
Active and inactive are the calls of the source. No cut-off for these calls is given here.

What was measured:
Hordeum vulgare [1] = test: Induction of resistance to Blumeria graminis f. sp. hordei isolate W14 infection in Hordeum vulgare cv. Edamai 9 (barley) assessed as upregulation of leaf-specific thionin gene using Contig1570_s_at as probe at 10 mg/l after 8 hr by qRT-PCR analysis relative to untreated control; assay type: functional
Hordeum vulgare [2] = test: Induction of resistance to Blumeria graminis f. sp. hordei isolate W14 infection in Hordeum vulgare cv. Edamai 9 (barley) assessed as upregulation of leaf-specific thionin gene using Contig1567_x_at as probe at 10 mg/l after 8 hr by qRT-PCR analysis relative to untreated control; assay type: functional
Hordeum vulgare [3] = test: Induction of resistance to Blumeria graminis f. sp. hordei isolate W14 infection in Hordeum vulgare cv. Edamai 9 (barley) assessed as downregulation of Pathogenesis-related protein 4 gene using Contig2550_x_at as probe at 10 mg/l after 8 hr by microarray analysis relative to untreated control; assay type: functional
Hordeum vulgare [4] = test: (§1) Induction of resistance to Blumeria graminis f. sp. hordei isolate W14 infection in Hordeum vulgare cv. Edamai 9 (barley) assessed as downregulation of Bsi1 protein gene using HD04G07u_s_at as probe at 10 mg/l after 8 hr by microarray analysis relative to untreated control; assay type: functional
Hordeum vulgare [5] = test: Induction of resistance to Blumeria graminis f. sp. hordei isolate W14 infection in Hordeum vulgare cv. Edamai 9 (barley) assessed as downregulation of Oxalate oxidase gene using Contig3017_at as probe at 10 mg/l after 8 hr by microarray analysis relative to untreated control; assay type: functional
Hordeum vulgare [6] = test: Induction of resistance to Blumeria graminis f. sp. hordei isolate W14 infection in Hordeum vulgare cv. Edamai 9 (barley) assessed as downregulation of Pathogenesis-related protein gene using Contig4054_s_at as probe at 10 mg/l after 8 hr by microarray analysis relative to untreated control; assay type: functional
Hordeum vulgare [7] = test: Induction of resistance to Blumeria graminis f. sp. hordei isolate W14 infection in Hordeum vulgare cv. Edamai 9 (barley) assessed as downregulation of Peroxidase gene using HVSMEm0005P05r2_at as probe at 10 mg/l after 8 hr by microarray analysis relative to untreated control; assay type: functional
Hordeum vulgare [8] = test: Induction of resistance to Blumeria graminis f. sp. hordei isolate W14 infection in Hordeum vulgare cv. Edamai 9 (barley) assessed as upregulation of Phytoene synthase E1 gene using Contig13305_at as probe at 10 mg/l after 8 hr by microarray analysis relative to untreated control; assay type: functional
Hordeum vulgare [9] = test: as §1, with “upregulation” for “downregulation”, “Xyloglucan endotransglycosylase-like” for “Bsi1”, “Contig2669_at” for “HD04G07u_s_at”; assay type: functional
Hordeum vulgare [10] = test: Induction of resistance to Blumeria graminis f. sp. hordei isolate W14 infection in Hordeum vulgare cv. Edamai 9 (barley) assessed as upregulation of stress-induced gene using Contig3427_at as probe at 10 mg/l after 8 hr by microarray analysis relative to untreated control; assay type: functional
Hordeum vulgare [11] = test: Induction of resistance to Blumeria graminis f. sp. hordei isolate W14 infection in Hordeum vulgare cv. Edamai 9 (barley) assessed as upregulation of stress-induced gene using Contig3426_at as probe at 10 mg/l after 8 hr by microarray analysis relative to untreated control; assay type: functional
Hordeum vulgare [12] = test: Induction of resistance to Blumeria graminis f. sp. hordei isolate W14 infection in Hordeum vulgare cv. Edamai 9 (barley) assessed as upregulation of leaf-specific thionin gene using Contig1582_x_at as probe at 10 mg/l after 8 hr by microarray analysis relative to untreated control; assay type: functional
Hordeum vulgare [13] = test: Induction of resistance to Blumeria graminis f. sp. hordei isolate W14 infection in Hordeum vulgare cv. Edamai 9 (barley) assessed as upregulation of leaf-specific thionin gene using Contig1570_s_at as probe at 10 mg/l after 8 hr by microarray analysis relative to untreated control; assay type: functional
Hordeum vulgare [14] = test: Induction of resistance to Blumeria graminis f. sp. hordei isolate W14 infection in Hordeum vulgare cv. Edamai 9 (barley) assessed as upregulation of leaf-specific thionin gene using Contig1580_x_at as probe at 10 mg/l after 8 hr by microarray analysis relative to untreated control; assay type: functional
Hordeum vulgare [15] = test: Induction of resistance to Blumeria graminis f. sp. hordei isolate W14 infection in Hordeum vulgare cv. Edamai 9 (barley) assessed as upregulation of leaf-specific thionin gene using Contig1567_x_at as probe at 10 mg/l after 8 hr by microarray analysis relative to untreated control; assay type: functional
Hordeum vulgare [16] = test: Induction of systemic resistance to Blumeria graminis f. sp. hordei isolate W14 infection in Hordeum vulgare cv. Edamai 9 (barley) assessed as decrease in colonies on leaf at 10 mg/l up to 216 hr relative to untreated-control; assay type: functional, organism-based
Hordeum vulgare [17] = test: Induction of localised resistance to Blumeria graminis f. sp. hordei isolate W14 infection in Hordeum vulgare cv. Edamai 9 (barley) assessed as decrease in colonies on leaf at 10 mg/l up to 216 hr relative to untreated-control; assay type: functional, organism-based
Blumeria hordei [18] = test: Antifungal activity against Blumeria graminis f. sp. hordei isolate W14 infected barley cv. Edamai 9 assessed as disease index at 10 mg/l after 15 days (reference value: 76.5%); assay type: functional
Blumeria hordei [19] = test: Antifungal activity against Blumeria graminis f. sp. hordei isolate W14 infected barley cv. Edamai 9 assessed as conidial germination at 10 mg/l after 15 days (reference value: 92.4%); assay type: functional
Hordeum vulgare [20] = test: Induction of resistance to Blumeria graminis f. sp. hordei isolate W14 infection in Hordeum vulgare cv. Edamai 9 (barley) assessed as upregulation of leaf-specific thionin gene using Contig1576_at as probe at 10 mg/l after 8 hr by microarray analysis relative to untreated control; assay type: functional
Blumeria hordei [21] = test: Antifungal activity against Blumeria graminis f. sp. hordei isolate W14 assessed as conidial germination at 10 mg/l after 48 hr (reference value: 47.3%); assay type: functional

COc1cc(O)c2c(c1)C(=O)c1cc(C)cc(O)c1C2=O [PHYSCION]
fold change (FC) (Hordeum vulgare [1]): 5.61 | fold change (FC) (Hordeum vulgare [2]): 4.77 | fold change (FC) (Hordeum vulgare [3]): -2.34 | fold change (FC) (Hordeum vulgare [4]): -2.77 | fold change (FC) (Hordeum vulgare [5]): -2.87 | fold change (FC) (Hordeum vulgare [6]): -2.94 | fold change (FC) (Hordeum vulgare [7]): -2.96 | fold change (FC) (Hordeum vulgare [8]): 2.09 | fold change (FC) (Hordeum vulgare [9]): 2.44 | fold change (FC) (Hordeum vulgare [10]): 2.41 | fold change (FC) (Hordeum vulgare [11]): 3.04 | fold change (FC) (Hordeum vulgare [12]): 4.26 | fold change (FC) (Hordeum vulgare [13]): 4.3 | fold change (FC) (Hordeum vulgare [14]): 4.74 | fold change (FC) (Hordeum vulgare [15]): 19.91 | Activity (Hordeum vulgare [16]): inactive | Activity (Hordeum vulgare [17]): Active | PDI (Blumeria hordei [18]): 4.4% | Activity (Blumeria hordei [19]): 4.5% | fold change (FC) (Hordeum vulgare [20]): 9.34 | Activity (Blumeria hordei [21]): 56.6%
